Experiments:
[1] = Concentrations of ZEN, α-ZEL and β-ZEL in colon tissue (immunoaffinity extraction, LC-MS/MS); assay type: in vivo, pre-pubertal gilts; details: for difference in mean ZEN levels between ascending and descending colon / difference in ZEN concentration in the descending colon: p ≤ 0.01; for ZEN metabolites in the distal colon: gilts given 40 μg ZEN/kg BW orally daily, 42 days
Procedure: (§1) Group E gilts were given ZEN orally at a dose of 40 μg ZEN/kg BW (Table 1). At the time of designing the experiment, the above value was equivalent to the no-observed-adverse-effect level (NOAEL) stipulated in the EFSA guidelines, which is 10 times higher than the current dose. Animals from group C received a placebo. The experiment lasted 42 days. The ZEN dose was adjusted to the BW of group E animals. Zearalenone was administered in enteric-coated capsules to avoid problems with uneven food intake. On each day of the experiment, the mycotoxin was administered orally before the morning feeding. Feed was used as a vector. Group C gilts received a placebo, i.e., the same gastro-resistant capsules with the vector, but without ZEN. Zearalenone was dissolved in 500 μL of 96% C2H5OH (96% ethyl, SWW 2442-90, Polskie Odczynniki Chemiczne SA, Gliwice, Poland) to obtain the dose needed (adjusted to BW). The obtained solutions were stored at a temperature of 20 °C for 12 h. Pre-pubertal gilts were weighed once a week to adjust ZEN doses to the needs of each animal. Three gilts from each experiment group were killed on day 7 (1st week of exposure), 14 (2nd week of exposure), 21 (3rd week of exposure), 28 (4th week of exposure), 35 (5th week of exposure), and 42 (6th week of exposure). On each of the above dates, the animals were euthanized by intravenous administration of sodium pentobarbital (Fatro, Ozzano Emilia, BO, Italy). Tissue samples (approx. 1.0 cm × 1.5 cm) from the middle parts of both examined colon sections were collected immediately after cardiac arrest. Samples were washed with phosphate buffer and prepared for toxicological analyses and gene expression assessment. Laboratory analyses were conducted within one month after tissue sampling.
Zearalenone, α-ZEL, and β-ZEL were extracted from tissue samples using immunoaffinity columns (Zearala-TestTM Zearalenone Testing System, G1012, VICAM, Watertown, MA, USA) according to the manufacturer’s instructions. The eluates were placed in a water bath at 50 °C and evaporated in nitrogen stream. Until chromatographic analysis, the dry residues were stored at −20 °C. The results were verified by mass spectrometry and the procedure was monitored using internal standards.
ZEN, α-ZEL, and β-ZEL tissue concentrations were determined using an Agilent 1260 liquid chromatograph (LC) and an Agilent 6470 mass spectrometer (MS). The prepared samples were analyzed using an Agilent ZORBAX high-resolution HPLC column (Agilent Eclipse Plus C18; 2.1 × 50 mm, 1.8 µm) in a gradient elution program. The mobile phase consisted of 0.1% (v/v) formic acid dissolved in water (solvent A) and 0.1% (v/v) formic acid dissolved in acetonitrile (solvent B). The gradient program began with 20% B, which was increased to 100% B after 4.0 min and decreased to 20% B after 0.1 min.
Mycotoxins were quantified using external standards and were expressed in ppb (ng/mL). Calibration standards are fitted to the detector to eliminate detector influences that may reduce test sensitivity. Following the procedure described for the remaining samples, calibration standards were dissolved in the matrix samples (matrix-matched calibration). The material for the preparation of calibration standards was free from mycotoxins. The signal-to-noise ratio (3:1) was […] for ZEN, α-ZEL, and β-ZEL. The LOQ was defined as three times the LOD.
Electrospray ionization (ESI) mass spectrometry was performed in negative ion mode. MS/MS indices were optimized for all compounds. Using a six-level calibration curve, linearity was assessed.
The results were statistically processed at the Department of Discrete Mathematics and Theoretical Computer Science, Faculty of Mathematics and Computer Science of the University of Warmia and Mazury in Olsztyn. […]

[2] = test system: CYP1A1 gene; experiment: CYP1A1 mRNA expression in the ascending and descending colon (qPCR); assay type: in vivo, pre-pubertal gilts; set-up: difference in CYP1A1 gene expression between groups C and E: scale not given here; details: for mean CYP1A1 gene expression during the entire experiment (expression ratio vs control at start = 1.00): group E
Procedure: as §1
(§2) Colon tissue samples were collected immediately after cardiac arrest. According to the manufacturer’s instructions (Sigma-Aldrich, Taufkirchen, Germany), samples were stored in RNAlater solution.
(§3) According to the manufacturer’s protocol, total RNA was extracted from tissues preserved in RNAlater (ca. 20 mg per sample; […] in each group) using the Total RNA Mini kit (A&A Biotechnology, Gdynia, Poland). RNA samples were incubated in ribonuclease-free DNAse I (Roche Diagnostics, Mannheim, Germany) to prevent contamination with genomic DNA. Overall RNA quality and purity from all samples were assessed using a BioPhotometer (Eppendorf, Germany) and the results were used for cDNA synthesis using the RevertAid™ First Strand cDNA Synthesis Kit (Fermentas, Burlington, ON, Canada). According to the manufacturer’s protocol, the reaction was performed using a cDNA synthesis reaction mixture for each sample, which consisted of 1 µg of total RNA and 0.5 µg of oligo (dT)18 primers. The first synthesized cDNA chain was stored at −20 °C pending further analysis.
Real-time PCR primers for target mRNA were designed using the Primer-BLAST tool based on reference species (Table 4). Real-time PCR was performed on an ABI 7500 Real-Time PCR system (Applied Biosystems, Foster City, CA, USA) in single plex mode; further procedures were performed according to the manufacturer’s instructions. Each PCR reaction tube contained 10 μL of the FastStart SYBR Green Master ROX mix (Roche Diagnostics), 0.25–0.5 μM of each primer (forward and reverse; Table 4), and 1 μL of the previously synthesized cDNA as a template, supplemented with PCR-grade H2O to a final volume of 20 μL. The reaction was performed under the following standard thermal conditions: 95 °C for 10 min, followed by 45 cycles of 95 °C for 15 s and 60 °C for 1 min. Negative water controls (NTCs) were included to rule out cross-contamination. The quality of PCR products was verified by melting curve analysis, followed by agarose gel electrophoresis. The specificity of the designed primer pairs was confirmed by sequencing the obtained PCR products ([…]). […]

[3] = test system: GSTπ1 gene; experiment: GSTπ1 mRNA expression in the ascending and descending colon (qPCR); assay type: in vivo, pre-pubertal gilts; details: for difference in GSTπ1 gene expression between groups C and E: p ≤ 0.05; for average expression of the GSTπ1 gene during the entire experiment (expression ratio vs control at start = 1.00): group E
Procedure: as §1, §2, §3
Real-time PCR primers for target mRNA were designed using the Primer-BLAST tool based on reference species (Table 4). Real-time PCR was performed on an ABI 7500 Real-Time PCR system (Applied Biosystems, Foster City, CA, USA) in single plex mode; further procedures were performed according to the manufacturer’s instructions. Each PCR reaction tube contained 10 μL of the FastStart SYBR Green Master ROX mix (Roche Diagnostics), 0.25–0.5 μM of each primer (forward and reverse; Table 4), and 1 μL of the previously synthesized cDNA as a template, supplemented with PCR-grade H2O to a final volume of 20 μL. […]

[4] = Clinical signs during the 42-day exposure; assay type: in vivo, pre-pubertal gilts; details: 40 μg ZEN/kg BW orally daily for 42 days
Procedure: as §1, with “On each of the above dates, the animals were euthanized by intravenous administration of sodium pentobarbital (Fatro, Ozzano Emilia, BO, Italy). Tissue samples (approx. 1.0 cm × 1.5 cm) from the middle parts of both examined colon sections were collected immediately after cardiac arrest. Samples were washed with phosphate buffer and prepared for toxicological analyses and gene expression assessment. Laboratory analyses were conducted within one month after tissue sampling.” left out

[5] = cited from earlier work
[6] = set-up: method as in PMID 25283475; details: value at the time of designing the experiment; 10 times higher than the current dose; cited from earlier work

In the case of C[C@H]1CCCC(=O)CCC/C=C/c2cc(O)cc(O)c2C(=O)O1 [ZEN, Zearalenone], the “ZEN strength in the ascending colon, on average” value ([1]; 40 μg ZEN/kg BW orally daily, average over each week of exposure (weeks 1-6)) is reported as 2.09 ng ZEN/g, the “mean ZEN strength in the descending colon, on average” value ([1]; 40 μg ZEN/kg BW orally daily, first three weeks of exposure) is reported as 6.4 ng ZEN/g and the concentration at 4 week of exposure ([1]; female, pig, descending colon tissue, po, 40 μg ZEN/kg BW orally daily, week 4) is reported as 205 ng/g. For the same molecule, the concentration at 5 week of exposure ([1]; female, pig, descending colon tissue, po, 40 μg ZEN/kg BW orally daily, week 5) was 177 ng/g, the concentration at 6 week of exposure ([1]; female, pig, descending colon tissue, po, 40 μg ZEN/kg BW orally daily, week 6) was 112 ng/g and the “difference in mean ZEN levels between ascending and descending colon” value ([1]; week 4) was 200.33 ng ZEN/g. The “difference in ZEN concentration in the descending colon” value (from here on “difference in ZEN concentration”) ([1]; week 4 vs week 1) was 200.31 ng ZEN/g, the “difference in ZEN concentration” value ([1]; week 4 vs week 2) was 198.21 ng ZEN/g and the “difference in ZEN concentration” value ([1]; week 4 vs week 3) was 197.44 ng ZEN/g. The “difference in mean ZEN levels between ascending and descending colon” value ([1]; week 5) was 173.61 ng ZEN/g, the “difference in ZEN concentration” value ([1]; week 5 vs week 1) was 172.31 ng ZEN/g and the “difference in ZEN concentration” value ([1]; week 5 vs week 2) was 170.21 ng ZEN/g. For the same molecule, the “difference in mean ZEN levels between ascending and descending colon” value ([1]; week 6) was 109.55 ng ZEN/g, the “difference in CYP1A1 gene expression between groups C and E” value ([2]; ascending colon, week 4, p ≤ 0.01) was 0.98 and the “difference in CYP1A1 gene expression between groups C and E” value ([2]; ascending colon, week 5, p ≤ 0.01) was 1.16. The “difference in CYP1A1 gene expression between groups C and E” value ([2]; descending colon, week 1, higher in group C, p ≤ 0.01) was 0.41, the “difference in CYP1A1 gene expression between groups C and E” value ([2]; descending colon, week 2, higher in group C, p ≤ 0.05) was 0.14 and the “difference in CYP1A1 gene expression between groups C and E” value ([2]; descending colon, week 3, higher in group E, p ≤ 0.05) was 0.13. The “difference in CYP1A1 gene expression between groups C and E” value ([2]; descending colon, week 5, higher in group C, p ≤ 0.05) was 0.24, the “mean CYP1A1 gene expression during the entire experiment (expression ratio vs control at start = 1.00)” value ([2]; ascending colon, group C 0.99) was 0.73 and the “mean CYP1A1 gene expression during the entire experiment (expression ratio vs control at start = 1.00)” value ([2]; descending colon, group C 0.57) was 0.43. For the same molecule, the “difference in GSTπ1 gene expression between groups C and E” value ([3]; ascending colon, week 1, higher in group C) was 0.35, the “difference in GSTπ1 gene expression between groups C and E” value ([3]; descending colon, week 2, lower in group E) was 0.27 and the “difference in GSTπ1 gene expression between groups C and E” value ([3]; descending colon, week 6, lower in group E) was 0.34. For the same molecule, the “average expression of the GSTπ1 gene during the entire experiment (expression ratio vs control at start = 1.00)” value ([3]; ascending colon, group C 0.96) was 0.39, the “average expression of the GSTπ1 gene during the entire experiment (expression ratio vs control at start = 1.00)” value ([3]; descending colon, group C 1.07) was 0.94 and the “clinical signs of zearalenone mycotoxicosis” value [4] was “No clinical signs”. For the same molecule, the “solubility in fats and alkaline aqueous solutions” value ([5]; fats and alkaline aqueous solutions) was “soluble in fats and alkaline aqueous solutions”, the solubility in water ([5]; water) was “almost insoluble in water” and the “no-observed-adverse-effect level (NOAEL)” value [6] was 40 μg ZEN/kg BW.
With C[C@H]1CCC[C@H](O)CCC/C=C/c2cc(O)cc(O)c2C(=O)O1 [α-ZEL, α-zearalenol] the “ZEN metabolites in the distal colon” value [1] was “no ZEN metabolites (α-ZEL and β-ZEL) were found”.
In the case of C[C@H]1CCC[C@@H](O)CCC/C=C/c2cc(O)cc(O)c2C(=O)O1 [β-ZEL, β-zearalenol], the “ZEN metabolites in the distal colon” value [1] is reported as “no ZEN metabolites (α-ZEL and β-ZEL) were found”.
